# From patent US20030013660A1, “Dioxolane analogs for improved inter-cellular delivery” (Shire BioChem Inc., priority 2000, published 2003)
# Where “and” joins values, the source holds several entries; their conditions need not be identical. Identical values can stand only once.
# Experiments:
# CCRF-CEM [1] = assay: 3H-TdR (3H-thymidine) incorporation assay at 72 hr; format: cell-based; conditions: Homo sapiens, CCRF-CEM, read-out: IC50 CCRF-CEM 24 h, 24 h drug exposure, wash, another 48 hr; 3H-TdR incorporation at 72 hr
# Experimental: (§1) Table of IC50 Values (μM) for Controls
# (§2) Exposition of 24 hr to drug, wash, incubated for another 48 hr (total of 72 hr assay)
# (§3) (3H-Thymidine Incorporation Assay)
# CEM/dCK- [2] = assay: 3H-TdR (3H-thymidine) incorporation assay at 72 hr; format: cell-based
# Experimental: as §1, §2, §3
# CCRF-CEM [3] = assay: MTT or WST-1 assay at 72 hr (24 hr drug exposure, wash, 48 hr); format: cell-based
# Experimental: (§4) Exposition of 24hr to drug, washed, and incubated for another 48hr (total of 72hr assay)
# MCF-7 [4] = assay: 3H-TdR (3H-thymidine) incorporation assay at 72 hr; format: cell-based, Human; conditions: Homo sapiens, MCF7, read-out: IC50 MCF-7 24 h, 24 h drug exposure, wash, another 48 hr; 3H-TdR incorporation at 72 hr
# SF-268 [5] = assay: 3H-TdR (3H-thymidine) incorporation assay at 72 hr; format: cell-based, Human; conditions: Homo sapiens, SF-268, read-out: IC50 SF-268 24 h, 24 h drug exposure, wash, another 48 hr; 3H-TdR incorporation at 72 hr
# H-460 [6] = assay: 3H-TdR (3H-thymidine) incorporation assay at 72 hr; format: cell-based, Human; conditions: Homo sapiens, NCI-H460, read-out: IC50 H-460 24 h, 24 h drug exposure, wash, another 48 hr; 3H-TdR incorporation at 72 hr
# CCRF-CEM [7] = assay: 3H-TdR incorporation at 72 hr (24 hr drug exposure, wash, 48 hr); format: cell-based; conditions: read-out: IC50 in μM (3H-TdR incorporation at 72 hr) CCRF-CEM 24 h, CCRF-CEM T-cell Leukemia, 72 hr assay
# Experimental: as §2, §3
# CEM/dCK- [8] = assay: as above; format: cell-based; conditions: for IC50: Homo sapiens, CCRF-CEM, read-out: IC50 in μM (3H-TdR incorporation at 72 hr) CEM/dCK- 24 h, CCRF-CEM deoxycytidine kinase-deficient, 24 h drug exposure, 72 hr assay; for Factor* (Resistance Factor = Ratio of dCK- on Wild-type CCRF-CEM): ratio of IC50 CEM/dCK- to IC50 CCRF-CEM
# Experimental: as §2, §3
# H-460 [9] = assay: as above; format: cell-based, Human; conditions: Homo sapiens, NCI-H460, read-out: IC50 in μM (3H-TdR incorporation at 72 hr) H-460 24 h, H-460 Human Lung Carcinoma, 72 hr assay
# Experimental: as §2, §3
# SF-268 [10] = assay: as above; format: cell-based, Human; conditions: Homo sapiens, SF-268, read-out: IC50 in μM (3H-TdR incorporation at 72 hr) SF-268 24 h, SF-268 Human Central Nervous System Tumor; 24 h drug exposure, 72 hr assay
# Experimental: as §2, §3
# MCF-7 [11] = assay: as above; format: cell-based, Human; conditions: Homo sapiens, MCF7, read-out: IC50 in μM (3H-TdR incorporation at 72 hr) MCF-7 24 h, MCF-7 Human Breast Carcinoma, 72 hr assay
# Experimental: as §2, §3
# CEM/dCK- [12] = assay: MTT or WST-1 assay at 72 hr (24 hr drug exposure, wash, 48 hr); format: cell-based
# Experimental: as §4
# MCF-7 [13] = assay: MTT assay at 72 hr (24 hr drug exposure, wash, 48 hr); format: cell-based
# Experimental: as §4
# H-460 [14] = assay: as above; format: cell-based
# Experimental: as §4
# SF-268 [15] = assay: as above; format: cell-based
# Experimental: as §4
# [16] = Homo sapiens, CCRF-CEM, read-out: IC50 CCRF-CEM 24 h, MMT or WST-1 at 72 hr, 24 h exposure, single experiment
# [17] = read-out: IC50 CCRF-CEM 24 h, MMT or WST-1 at 72 hr, 24 h exposure, single experiment
# [18] = CEM/dCK- versus CCRF-CEM, single experiment
# [19] = read-out: IC50 CEM/dCK- 24 h; MMT or WST-1 at 72 hr, 24 h exposure, single experiment
# [20] = Homo sapiens, MCF7, read-out: IC50 MCF-7 24 h, MTT at 72 hr, 24 h exposure, single experiment
# [21] = read-out: IC50 MCF-7 24 h, MTT at 72 hr, 24 h exposure, single experiment
# [22] = read-out: IC50 CEM/dCK- 24 h, MMT or WST-1 at 72 hr, 24 h exposure, single experiment
# [23] = Homo sapiens, NCI-H460, read-out: IC50 H-460 24 h, MTT at 72 hr, 24 h exposure, single experiment
# [24] = read-out: IC50 H-460 24 h, MTT at 72 hr, 24 h exposure, single experiment
# [25] = Homo sapiens, SF-268, read-out: IC50 SF-268 24 h, MTT at 72 hr, 24 h exposure, single experiment
# [26] = read-out: IC50 SF-268 24 h, MTT at 72 hr, 24 h exposure, single experiment
SMILES,IC50 (CCRF-CEM [3]; [16]),IC50 (CCRF-CEM [3]; [17]),"IC50 (CCRF-CEM [7]; Homo sapiens, CCRF-CEM)",IC50 (CEM/dCK- [8]),Factor* (Resistance Factor = Ratio of dCK- on Wild-type CCRF-CEM) (CEM/dCK- [8]),IC50 (H-460 [9]),IC50 (SF-268 [10]),IC50 (MCF-7 [11]),IC50 (CEM/dCK- [12]; [19]),IC50 (CEM/dCK- [12]; [22]),IC50 (H-460 [14]; [24]),further results
"Nc1ccn([C@@H]2CO[C@H](COC(=O)C34CC5CC(CC(C5)C3)C4)O2)c(=O)n1 [Compound 110, ADAMANTANE-1-CARBOXYLIC ACID 4-(4-AMINO-2-OXO- 2H-PYRIMIDIN-1-YL)- [1,3]DIOXOLAN-2- YLMETHYL ESTER]",3.4 nM,2.5 nM and 4 nM,,,,,,,,,,"IC50 (CCRF-CEM [1]): 1.3 nM; IC50 (CEM/dCK- [2]; Homo sapiens, CCRF-CEM, read-out: IC50 CEM/dCK- 24 h, 24 h drug exposure, wash, another 48 hr, deoxycytidine kinase-deficient CCRF-CEM): 4300 nM; Factor* (Resistance Factor = Ratio of dCK- on Wild-type CCRF-CEM) (CEM/dCK- [2]; ratio of IC50 CEM/dCK- to CCRF-CEM, 24 h): 3307; IC50 (MCF-7 [4]): 10 nM; IC50 (SF-268 [5]): 4.9 nM; IC50 (H-460 [6]): 1 nM"
"COc1ccc(C(OC[C@H]2OC[C@@H](n3ccc(N)nc3=O)O2)(c2ccc(OC)cc2)c2ccc(OC)cc2)cc1 [Compound 185, 4-AMINO-1-{2-[TRIS-(4- METHOXY-PHENYL)- METHOXYMETHYL]- [1,3]DIOXOLAN-4-YL}-1H- PYRIMIDIN-2-ONE]",,180 nM,66 nM,17 µM,258,0.059 µM,0.054 µM,0.064 µM,12000 nM,,,Resistance Factor* (CEM/dCK- [12]; [18]): 67; IC50 (MCF-7 [13]; [20]): 1400 nM; IC50 (MCF-7 [13]; [21]): 2300 nM
"O=C(CCCCCCCc1ccccc1)Nc1ccn([C@@H]2CO[C@H](COC(=O)CCCCCCCc3ccccc3)O2)c(=O)n1 [Compound 196, 8-PHENYL-OCTANOIC ACID 4-[2-OXO-4-(8-PHENYL- OCTANOYLAMINO)-2H- PYRIMIDIN-1-YL]- [1,3]DIOXOLAN-2-YL METHYL ESTER]",10 nM,,,,,< 0.0001 µM,< 0.0001 µM,< 0.0001 µM,,,,
"CC(=O)Oc1ccc(COC(=O)Nc2ccn([C@@H]3CO[C@H](COC(=O)OCc4ccc(OC(C)=O)cc4)O3)c(=O)n2)cc1 [Compound 202, Acetic acid 4-(1-{2-[4-(Acetyloxy)benzyloxycarbonyloxymethyl]-[1,3]dioxolan-4-yl}2-oxo-1,2-dihydropyrimidin-4-ylcarbamoyloxymethyl)-phenyl Ester]",14 nM,,< 0.1 nM,,>1000,,,< 0.0001 µM,> 100 nM,50 nM,,Resistance Factor* (CEM/dCK- [12]; [18]): >7
"CCCCCCCCCCCC(=O)Nc1ccn([C@@H]2CO[C@H](CO)O2)c(=O)n1 [Compound 208, DODECANOIC ACID [1-(2- HYDROXYMETHYL- [1,3]DIOXOLAN-4-YL)-2- OXO-1,2-DIHYDRO- PYRIMIDIN-4-YL]-AMIDE]",,,< 0.1 nM,,,,,,,,200 nM,IC50 (CCRF-CEM [7]): 0.052 nM; IC50 (H-460 [14]; [23]): 110 nM
"CCCCC[C@]12CC[C@](C(=O)Nc3ccn([C@@H]4CO[C@H](CO)O4)c(=O)n3)(CC1)CC2 [Compound 210, 4-Pentyl-Bicyclo[2.2.2]Octane-1-Carboxylic Acid [1-(2-Hydroxymethyl-[1,3]Dioxolan-4-Yl)-2-Oxo-1,2-Dihydro-Pyrimidin-4-Yl]-Amide]",,,,> 100 µM,,0.0026 µM,0.26 µM,0.005 µM,,,,IC50 (SF-268 [15]; [25]): ≥ 100000 nM; IC50 (SF-268 [15]; [26]): > 100000 nM and 51000 nM
"CCCCC[C@]12CC[C@](C(=O)OC[C@H]3OC[C@@H](n4ccc(N)nc4=O)O3)(CC1)CC2 [Compound 211, 4-PENTYL- BICYCLO[2.2.2]OCTANE-1- CARBOXYLIC ACID 4-(4- AMINO-2-OXO-2H- PYRIMIDIN-1-YL)- [1,3]DIOXOLAN-2-YL METHYL ESTER]",,,0.027 nM,,,,,,,,,IC50 (CCRF-CEM [7]): 0.053 nM; IC50 (SF-268 [15]; [26]): 34 nM
"CCCCCCCC/C=C\CCCCCCCC(=O)Nc1ccn([C@@H]2CO[C@H](CO)O2)c(=O)n1 [Compound 219, OCTADEC-9-ENOIC ACID [1-(2-HYDROXYMETHYL- [1,3]DIOXOLAN-4-YL)-2- OXO-1,2-DIHYDRO- PYRIMIDIN-4-YL]-AMIDE]",18 nM,10 nM,,2.1 µM,,≤ 0.0001 µM,0.00012 µM,≤ 0.0001 µM,,,,
"Nc1ccn([C@@H]2CO[C@H](COC(=O)C3(c4ccccc4)CC3)O2)c(=O)n1 [Compound 223, 1-PHENYL- CYCLOPROPANECARBOXYLIC ACID 4-(4-AMINO-2-OXO- 2H-PYRIMIDIN-1-YL)- [1,3]DIOXOLAN-2-YL METHYL ESTER]",,,62 nM,> 100 µM,>1613,0.035 µM,0.25 µM,0.15 µM,,> 100000 nM,,IC50 (MCF-7 [13]; [20]): 1700 nM; IC50 (MCF-7 [13]; [21]): 2100 nM and 1400 nM
"CCCCC[C@H]1CC[C@H](C(=O)Nc2ccn([C@@H]3CO[C@H](CO)O3)c(=O)n2)CC1 [Compound 239, 4-PENTYL- CYCLOHEXANECARBOXYLIC ACID [1-(2- HYDROXYMETHYL- [1,3]DIOXOLAN-4-YL)-2- OXO-1,2-DIHYDRO- PYRIMIDIN-4-YL]-AMIDE]",,,3 nM,20 µM,6667,0.0065 µM,0.19 µM,0.00033 µM,28000 nM and 17000 nM,20000 nM,200 nM,
"CC(CCCCCCc1ccccc1)C(=O)Nc1ccn([C@@H]2CO[C@H](CO)O2)c(=O)n1 (some centres unmarked) [Compound 247, 2-Methyl-8-phenyl-octanoic acid [1-(2-hydroxymethyl-[1,3]dioxolan-4-yl)-2-oxo-1,2-dihydro-pyrimidin-4-yl]-amide]",,,100 nM,15 µM,150,0.13 µM,0.13 µM,0.00078 µM,49000 nM,61000 nM,540 nM and 460 nM,IC50 (H-460 [14]; [23]): 390 nM
"CC(C)C[C@H](N)C(=O)Nc1ccn([C@@H]2CO[C@H](CO)O2)c(=O)n1 [Compound 257, 2-AMINO-4-METHYL- PENTANOIC ACID [1-(2- HYDROXYMETHYL- [1,3]DIOXOLAN-4-YL)-2- OXO-1,2-DIHYDRO- PYRIMIDIN-4-YL]-AMIDE]",4100 nM,5400 nM,4200 nM,> 100 µM,>24,9.7 µM,1.6 µM,5 µM,,> 100000 nM,,IC50 (SF-268 [15]; [25]): > 100000 nM; IC50 (MCF-7 [13]; [20]): 36000 nM; IC50 (MCF-7 [13]; [21]): 21000 nM
"CC(C)C[C@H](NC(=O)[C@H](C)NC(=O)OC(C)(C)C)C(=O)Nc1ccn([C@@H]2CO[C@H](CO)O2)c(=O)n1 [Compound 263, (1-{1-[1-(2- HYDROXYMETHYL- [1,3]DIOXOLAN-4-YL)-2- OXO-1,2-DIHYDRO- PYRIMIDIN-4- YLCARBANOYL]-3-METHYL- BUTYLCARBAMOYL}-ETHYL)- CARBAMIC ACID TERT- BUTYL ESTER]",19000 nM,14000 nM,,,,,,,,> 100000 nM,> 100000 nM,IC50 (H-460 [14]; [23]): 66000 nM; IC50 (SF-268 [15]; [25]): > 100000 nM
